“Also recorded” adds a separate entry of the source.
Experiments:
Type in all cases: cell-based, human
PC-3 cells [1] = assay: Matrigel invasion assay; settings: for invasion: prostate cancer cells, concentration not given
Method: PC-3 cells were pre-treated with DMSO vehicle control or with drug for 4 hours in T-25 flasks. Thereafter, 50,000 cells were then plated into the upper chamber that has been pre-coated with Matrigel (BD Sciences, San Jose, Ca) in the presence of drug or DMSO and serum-free media. The bottom well contained complete media including 10% FBS and 0.5% BSA as chemoattractants. After 24 hours, the upper chambers were removed, and any remaining cells within the insert were wiped with a cotton swab. Invading cells were then stained with 2% crystal violet in 20% methanol. Cells were then counted using a Zeiss stereomicroscope at 20× power. 10 random fields were counted. The results represent an average of two independent experiments, each run in triplicates.
As reported previously, inhibition of Tiam-1 and subsequent inactivation of downstream signaling proteins leads to reduced actin cytoskeleton rearrangements resulting in decreased cell motility. […] FIG. 4, Panel A, A wound channel was introduced near-to-confluent non-treated or treated PC-3 cells with 10 μM V pKLO1 mock-transfection control cells, and shRNA cell line 1.2 (GS-1). […] FIG. 4, Panel B, PC-3 cells and Tiam-1 shRNA cell line 1.2 (shRNA 1.2) were treated as indicated, then stimulated with 20% FBS for 20 minutes to induce lamellipodia formation and stained with rhodamin phalloidin. Individual lamellipodia were counted in a minimum of 10 cells in each respective group and statistical analysis was performed using a Student's t-test. […] FIG. 4, Panel C, pKLO1 PC-3 cells, pKLO1 treated with 10 μM compound V and shRNA 1.2 cells were allowed to invade through Matrigel-coated transwell plates. Invading cells were stained after 12 hours and counted at 20× power (left side). […] In order to test our hypothesis, cells were stained with rhodamin phalloidin and then analyzed for actin/cytoskeleton formations, such as lamellipodia. […] Thus, the observed reduction in cellular motility in compound V treated cells and Tiam-1 silenced cells may be the result of f-actin disruption and reduced frequencies of lamellipodia formation. […]

prostate cancer cells = assay: Colony formation (FIG. 4, cell line not given)
Method: PC-3, LNCaP and DU145 cells were plated at 1000 cells/well into standard 6-well plates (3.5 cm) in the presence of complete media. The next day cells were drugged at increasing concentrations ranging from 1 to 50 μM in triplicate wells. Cells were viewed twice weekly to check for colony growth and confluence. Media and respective drugs were carefully replaced every three days. At day 12, media was aspirated and resulted colonies were stained with crystal violet (0.5% w/v) dissolved in ethanol for one minute, washed with water, and air dried as already described in reference. The resulting colonies were counted utilizing an Optronix Colony counter using ColCount software (Oxford Optronix Ltd, UK). The results represent an average of two independent experiments, each run in triplicates.

PC-3 cells [2] = assay: Lamellipodia forming assay
Method: Glass coverslips were sterilized with 100% EtOH and placed in 6-well plates. PC-3 cells, pKLO.1, GS-1 and GS-2 cells were plated at 3000 cells/well and allowed to adhere overnight. Cells where then serum starved for 48 hours, then treated with the indicated drug for 12 hours, and stimulated with 20% FBS for 30 minutes. Coverslips were then removed from the plates, washed twice with cold PBS, and fixed with 3.7% paraformaldehyde solution in PBS for 10 minutes. Cells were then permeabilized using 0.1% Triton X-100 for 5 minutes. Cells were stained with rhodamine phalloidin (Invitrogen, Carlsbad, Calif.) for 20 minutes using the supplied protocol. Coverslips were then air-dried and mounted using ProLong Gold with DAPI (Invitrogen, Carlsbad, Calif.) and stored at 4° C. Cells were visualized at 40× using Olympus Bx-50 microscope with the CellSens imaging software. Individual lamellipodia were counted in a minimum of 10 cells in each respective group and statistical analysis was done using a Student's t-test.
As reported previously, inhibition of Tiam-1 and subsequent inactivation of downstream signaling proteins leads to reduced actin cytoskeleton rearrangements resulting in decreased cell motility. […] FIG. 4, Panel A, A wound channel was introduced near-to-confluent non-treated or treated PC-3 cells with 10 μM V pKLO1 mock-transfection control cells, and shRNA cell line 1.2 (GS-1). […] FIG. 4, Panel B, PC-3 cells and Tiam-1 shRNA cell line 1.2 (shRNA 1.2) were treated as indicated, then stimulated with 20% FBS for 20 minutes to induce lamellipodia formation and stained with rhodamin phalloidin. Individual lamellipodia were counted in a minimum of 10 cells in each respective group and statistical analysis was performed using a Student's t-test. […] Invading cells were stained after 12 hours and counted at 20× power (left side). […] In order to test our hypothesis, cells were stained with rhodamin phalloidin and then analyzed for actin/cytoskeleton formations, such as lamellipodia. […]

[3] = system: active Rac1 in PC-3 cells; assay: Rac1 activation assay (GLISA); settings: 1 μM, 4 hours, then 50 ng/ml hHGF for 2 minutes
Method: Rac1 activity was determined by the colorimetric GLISA Kit BK128 (Cytoskeleton, Inc, Denver, Co). Briefly, PC-3 (PC-3, pKLO.1, GS-1 and GS-2 cells), DU 145 and LNCap cells were grown to 75% confluence and then serum starved for 48 hours. Drugs were then added for 4 hours and cells were stimulated with 50 ng/ml hHGF (Gibco Life Sciences, Carlsbad, Ca) for 2 minutes. Cells were then lysed and harvested as described in the kit-supplied protocol. Protein concentration was normalized to 1.0 g/l. Plates were read in an absorbance spectrophotometer at 490 nm at 24° C. with 5 s medium orbital shaking. Data were analyzed as described in the supplied protocol. The results represent an average of three independent experiments, each run in duplicates.
A cellular screen of all hit compounds was conducted using the GLISA Rac1 activation kit. Briefly, PC-3 cells were drugged for 4 hours at 1 μM concentration with the selected compounds. Cells were then stimulated with 50 ng/ml of hHGF for 2 minutes. […] The isovolume of Tiam-1 PH domain (PDB 1FOE) was generated using GRID for the H-bond acceptor (−3.6 kcal/mol), the H-bond donor (−7.3 kcal/mol) and hydrophobic (−2.5 kcal/mol) probes. The critical residues are labeled around the isovolume surfaces. The dash lines represent hydrogen bonds between protein and inhibitors. […]

PC-3 cells [4] = assay: Migration wound closure assay; settings: for migration / motility (wound healing): prostate cancer cells, concentration not given
Method: PC-3, DU145 and LNCaP cells were grown in six-well plates in the presence of 10% FBS. Once the cells formed a monolayer, near confluency a wound was done manually with a sterile […] pipette tip in the center of each well. Cells were treated with vehicle alone (DMSO) or 10 μM of compound IV and were grown in the presence of 2% FBS. After 18 hours, the migrating cells were photographed. The wound closure was quantified by measuring the distance between the two sides of the wound. The results represent an average of two independent experiments, each run in triplicates.
As reported previously, inhibition of Tiam-1 and subsequent inactivation of downstream signaling proteins leads to reduced actin cytoskeleton rearrangements resulting in decreased cell motility. […] FIG. 4, Panel A, A wound channel was introduced near-to-confluent non-treated or treated PC-3 cells with 10 μM V pKLO1 mock-transfection control cells, and shRNA cell line 1.2 (GS-1). […] FIG. 4, Panel B, PC-3 cells and Tiam-1 shRNA cell line 1.2 (shRNA 1.2) were treated as indicated, then stimulated with 20% FBS for 20 minutes to induce lamellipodia formation and stained with rhodamin phalloidin. Individual lamellipodia were counted in a minimum of 10 cells in each respective group and statistical analysis was performed using a Student's t-test. […] FIG. 4, Panel C, pKLO1 PC-3 cells, pKLO1 treated with 10 μM compound V and shRNA 1.2 cells were allowed to invade through Matrigel-coated transwell plates. Invading cells were stained after 12 hours and counted at 20× power (left side). […] In order to test our hypothesis, cells were stained with rhodamin phalloidin and then analyzed for actin/cytoskeleton formations, such as lamellipodia. […] Thus, the observed reduction in cellular motility in compound V treated cells and Tiam-1 silenced cells may be the result of f-actin disruption and reduced frequencies of lamellipodia formation. We next tested whether the compound of Formula V affected invasion of PC-3 through Matrigel-coated transwells.

[5] = prostate cancer cells, concentration not given

SMILES	invasion (PC-3 cells [1])	colony formation (prostate cancer cells)	lamellipodia formation (PC-3 cells [2]; [5])	reduction of active Rac1 [3]	migration / motility (wound healing) (PC-3 cells [4])	invasion through Matrigel-coated transwells (PC-3 cells [1]; PC-3 cells, 10 μM)	lamellipodia formation (PC-3 cells [2]; PC-3 cells, 10 μM, stimulation with 20% FBS)	wound closure (PC-3 cells [4]; PC-3 cells, 10 μM, after 18 hours)
c1ccc(Cn2nnc3c(Sc4nnc(-c5ccncc5)o4)ncnc32)cc1 [VI]	inhibits; also recorded: reduce invasion	inhibits	inhibits; also recorded: reduce lamellipodia formation	most pronounced and significant reduction of active Rac1	inhibits; also recorded: reduce migration	–	–	–
Cc1ccc(-n2cc(-c3cccs3)nc2SCc2n[nH]c(=S)n2Cc2ccccc2)cc1 [compound V]	inhibits; also recorded: reduce invasion	inhibits	inhibits; also recorded: reduce lamellipodia formation	most pronounced and significant reduction of active Rac1	inhibits; also recorded: reduce migration	significantly reduced amount of invading cells	significantly reduced the frequency of lamellipodia formation	significant inability to close a wound
